Data as given in ChEMBL document CHEMBL5257101, “Synthesis and evaluation of sulfonamide derivatives targeting EGFR790M/L858R mutations and ALK rearrangement as anticancer agents” (Bioorg Med Chem, 2023).
Calls of active or inactive are those of the source. The calls are words filed in the database; no cut-off is given here.

Columns and labels:
NCI-H1975 [1] = experiment: Antiproliferative activity against human NCI-H1975 cells expressing EGFR T790M/ L858R double mutant assessed as inhibition of cell growth measured after 48 to 72 hrs by MTT assay; format: functional, cell-based
A549 = experiment: Antiproliferative activity against human A549 cells expressing wild type EGFR assessed as inhibition of cell growth measured after 48 to 72 hrs by MTT assay; format: functional, cell-based
PC-9 = experiment: Antiproliferative activity against human PC-9 cells expressing EGFR Del19 mutant assessed as inhibition of cell growth measured after 48 to 72 hrs by MTT assay; format: functional, cell-based
[2] = Cytotoxicity against human EA.hy 926 cells assessed as inhibition of cell growth measured after 48 to 72 hrs by MTT assay; format: toxicity, cell-based
[3] = Cytotoxicity against human HK-2 cells assessed as inhibition of cell growth measured after 48 to 72 hrs by MTT assay; format: toxicity, cell-based
HK-2 = experiment: Effect on cell morphology in human HK-2 cells at 1 uM incubated for 24 hrs by inverted microscopic analysis; format: functional, cell-based
NCI-H2228 [4] = experiment: Antiproliferative activity against human NCI-H2228 cells expressing ALK assessed as inhibition of cell growth measured after 48 to 72 hrs by MTT assay; format: functional, cell-based
[5] = molecular target: ALK tyrosine kinase receptor (Homo sapiens, UniProt Q9UM73); experiment: Inhibition of ALK (unknown origin) pre-incubated for 10 mins followed by substrate addition measured after 60 mins in presence of ATP by mobility shifting assay
Sequence of ALK tyrosine kinase receptor (Q9UM73 whole entry): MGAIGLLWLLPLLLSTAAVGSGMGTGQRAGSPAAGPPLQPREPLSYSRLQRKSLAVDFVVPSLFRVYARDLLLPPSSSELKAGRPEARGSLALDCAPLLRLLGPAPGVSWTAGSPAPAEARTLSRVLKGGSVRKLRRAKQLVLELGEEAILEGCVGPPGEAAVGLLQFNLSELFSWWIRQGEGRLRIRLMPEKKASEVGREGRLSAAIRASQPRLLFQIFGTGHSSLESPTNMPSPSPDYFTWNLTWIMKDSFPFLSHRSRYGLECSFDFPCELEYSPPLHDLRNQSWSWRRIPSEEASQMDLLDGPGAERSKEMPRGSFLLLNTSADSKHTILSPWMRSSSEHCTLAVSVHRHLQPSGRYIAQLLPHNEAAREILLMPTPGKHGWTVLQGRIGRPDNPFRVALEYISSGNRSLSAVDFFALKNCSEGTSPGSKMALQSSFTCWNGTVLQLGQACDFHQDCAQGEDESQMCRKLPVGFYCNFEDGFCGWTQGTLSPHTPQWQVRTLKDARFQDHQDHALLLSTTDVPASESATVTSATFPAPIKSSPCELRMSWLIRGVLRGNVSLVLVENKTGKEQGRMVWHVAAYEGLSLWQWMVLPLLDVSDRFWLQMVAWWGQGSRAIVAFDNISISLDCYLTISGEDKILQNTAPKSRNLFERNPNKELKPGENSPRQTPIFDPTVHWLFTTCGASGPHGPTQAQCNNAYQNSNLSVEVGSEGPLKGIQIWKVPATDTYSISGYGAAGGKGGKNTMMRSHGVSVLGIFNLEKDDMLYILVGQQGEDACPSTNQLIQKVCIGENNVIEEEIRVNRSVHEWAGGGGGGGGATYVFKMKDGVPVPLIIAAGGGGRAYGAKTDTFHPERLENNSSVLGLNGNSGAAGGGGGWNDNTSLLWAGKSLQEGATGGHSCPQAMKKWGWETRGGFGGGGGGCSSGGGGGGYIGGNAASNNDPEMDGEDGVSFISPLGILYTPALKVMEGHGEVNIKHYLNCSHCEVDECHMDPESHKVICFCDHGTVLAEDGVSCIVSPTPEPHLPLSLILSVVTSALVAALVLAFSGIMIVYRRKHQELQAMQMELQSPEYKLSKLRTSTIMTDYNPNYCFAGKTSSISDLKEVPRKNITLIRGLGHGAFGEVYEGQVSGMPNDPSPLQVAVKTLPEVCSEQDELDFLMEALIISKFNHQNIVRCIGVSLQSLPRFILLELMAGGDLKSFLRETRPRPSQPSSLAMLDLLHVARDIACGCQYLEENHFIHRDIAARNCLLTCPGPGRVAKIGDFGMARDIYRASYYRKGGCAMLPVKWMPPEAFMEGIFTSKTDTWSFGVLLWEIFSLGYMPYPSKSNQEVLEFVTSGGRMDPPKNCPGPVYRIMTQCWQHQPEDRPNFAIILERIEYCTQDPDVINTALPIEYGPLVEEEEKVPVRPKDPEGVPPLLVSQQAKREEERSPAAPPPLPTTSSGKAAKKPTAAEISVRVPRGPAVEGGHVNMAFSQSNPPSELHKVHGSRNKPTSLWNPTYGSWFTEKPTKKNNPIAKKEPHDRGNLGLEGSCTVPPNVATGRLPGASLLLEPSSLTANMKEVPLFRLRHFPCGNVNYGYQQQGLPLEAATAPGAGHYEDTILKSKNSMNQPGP

[6] = Selectivity ratio, ratio of IC50 for human A549 cells expressing wild type EGFR to IC50 for human NCI-H1975 cells expressing EGFR T790M/ L858R double mutant by MTT assay
[7] = molecular target: Epidermal growth factor receptor (Homo sapiens, UniProt P00533, L858R/T790M); experiment: Inhibition of EGFR L858R/T790M double mutant (unknown origin) pre-incubated for 10 mins followed by substrate addition measured after 60 mins in presence of ATP by mobility shifting assay
[8] = molecular target: Epidermal growth factor receptor (Homo sapiens, UniProt P00533); experiment: Inhibition of wild type EGFR (unknown origin) pre-incubated for 10 mins followed by substrate addition measured after 60 mins in presence of ATP by mobility shifting assay
Sequence of Epidermal growth factor receptor (Homo sapiens, UniProt P00533) (P00533 whole entry): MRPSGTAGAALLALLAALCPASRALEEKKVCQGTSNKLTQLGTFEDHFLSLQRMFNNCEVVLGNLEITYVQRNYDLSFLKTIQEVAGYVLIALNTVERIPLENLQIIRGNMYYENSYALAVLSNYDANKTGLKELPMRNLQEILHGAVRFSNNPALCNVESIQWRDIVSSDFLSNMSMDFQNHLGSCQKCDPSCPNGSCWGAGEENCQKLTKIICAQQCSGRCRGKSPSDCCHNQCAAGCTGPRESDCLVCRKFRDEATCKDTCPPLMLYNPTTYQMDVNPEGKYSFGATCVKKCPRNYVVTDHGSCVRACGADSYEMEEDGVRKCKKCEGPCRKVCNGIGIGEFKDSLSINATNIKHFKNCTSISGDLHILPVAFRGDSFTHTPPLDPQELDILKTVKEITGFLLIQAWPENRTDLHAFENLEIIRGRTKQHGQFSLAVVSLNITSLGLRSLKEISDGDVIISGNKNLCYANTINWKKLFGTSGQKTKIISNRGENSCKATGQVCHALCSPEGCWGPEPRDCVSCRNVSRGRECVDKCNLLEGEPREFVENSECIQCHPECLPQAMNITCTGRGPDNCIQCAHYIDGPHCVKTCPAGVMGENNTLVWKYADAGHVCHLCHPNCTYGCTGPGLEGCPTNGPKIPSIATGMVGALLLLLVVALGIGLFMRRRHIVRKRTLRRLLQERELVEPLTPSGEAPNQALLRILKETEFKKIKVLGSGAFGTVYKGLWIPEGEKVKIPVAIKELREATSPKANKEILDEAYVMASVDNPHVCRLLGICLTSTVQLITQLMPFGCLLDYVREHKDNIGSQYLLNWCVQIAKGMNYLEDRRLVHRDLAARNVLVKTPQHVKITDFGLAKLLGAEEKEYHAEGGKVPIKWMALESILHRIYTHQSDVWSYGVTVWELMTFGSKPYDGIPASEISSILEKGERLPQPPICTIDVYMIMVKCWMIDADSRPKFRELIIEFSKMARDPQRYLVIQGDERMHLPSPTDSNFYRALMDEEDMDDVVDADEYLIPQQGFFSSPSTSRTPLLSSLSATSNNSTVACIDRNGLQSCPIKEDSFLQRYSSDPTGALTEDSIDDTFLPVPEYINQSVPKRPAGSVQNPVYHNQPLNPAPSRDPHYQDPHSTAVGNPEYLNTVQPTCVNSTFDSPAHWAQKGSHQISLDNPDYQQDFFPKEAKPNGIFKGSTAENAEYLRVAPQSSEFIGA

[9] = molecular target: Epidermal growth factor receptor (Homo sapiens, UniProt P00533, EX19DEL); experiment: Inhibition of EGFR Del19 mutant (unknown origin) pre-incubated for 10 mins followed by substrate addition measured after 60 mins in presence of ATP by mobility shifting assay
Sequence of Epidermal growth factor receptor (Homo sapiens, UniProt P00533, EX19DEL) (P00533 whole entry, looked up, stated change not applied): as the sequence (P00533 whole entry) above

Homo sapiens [10] = species on record: Homo sapiens; experiment: Selectivity ratio, ratio of IC50 for wild type EGFR (unknown origin) to IC50 for EGFR L858R/T790M double mutant (unknown origin) by mobility shifting assay
Homo sapiens [11] = species on record: Homo sapiens; experiment: Selectivity ratio, ratio of IC50 for wild type EGFR (unknown origin) to IC50 for EGFR Del19 mutant (unknown origin) by mobility shifting assay
[12] = Selectivity ratio, ratio of IC50 for human A549 cells expressing wild type EGFR to IC50 for human PC-9 cells expressing EGFR Del19 mutant by MTT assay
NCI-H1975 [13] = experiment: Effect on cell morphology in human NCI-H1975 cells assessed as appearance of blurred boundary region at 1 to 1000 nM incubated for 24 hrs; format: functional, cell-based; details: dose 1-1000 nM
NCI-H1975 [14] = experiment: Effect on cell morphology in human NCI-H1975 cells assessed as cell shrinkage at 1 to 1000 nM incubated for 24 hrs; format: functional, cell-based; details: dose 1-1000 nM
NCI-H1975 [15] = experiment: Effect on cell morphology in human NCI-H1975 cells assessed as cell aggregation at 1 to 1000 nM incubated for 24 hrs; format: functional, cell-based; details: dose 1-1000 nM
NCI-H1975 [16] = experiment: Effect on cell morphology in human NCI-H1975 cells assessed as disappearance of cell morphology at 1 to 1000 nM incubated for 24 hrs; format: functional, cell-based; details: dose 1-1000 nM
NCI-H2228 [17] = experiment: Effect on cell morphology in human NCI-H2228 cells assessed as increase of cell fragments at 1 to 1000 nM incubated for 24 hrs; format: functional, cell-based; details: dose 1-1000 nM
NCI-H2228 [18] = experiment: Effect on cell morphology in human NCI-H2228 cells assessed as increase of cell shrinkage at 1 to 1000 nM incubated for 24 hrs; format: functional, cell-based; details: dose 1-1000 nM
NCI-H2228 [19] = experiment: Effect on cell morphology in human NCI-H2228 cells assessed as increase of cell opacity at 1 to 1000 nM incubated for 24 hrs; format: functional, cell-based; details: dose 1-1000 nM
NCI-H2228 [20] = experiment: Effect on cell morphology in human NCI-H2228 cells assessed as loss of cell morphology at 1 to 1000 nM incubated for 24 hrs; format: functional, cell-based; details: dose 1-1000 nM
NCI-H2228 [21] = experiment: Effect on cell morphology in human NCI-H2228 cells assessed as loss of large number of floating cells at 1 to 1000 nM incubated for 24 hrs; format: functional, cell-based; details: dose 1-1000 nM
[22] = Selectivity ratio, ratio of IC50 for human NCI-H1975 cells expressing EGFR T790M/ L858R double mutant to IC50 for human EA.hy 926 cells by MTT assay
[23] = Selectivity ratio, ratio of IC50 for human NCI-H2228 cells expressing ALK to IC50 for human EA.hy 926 cells by MTT assay
[24] = Selectivity ratio, ratio of IC50 for human NCI-H1975 cells expressing EGFR T790M/ L858R double mutant to IC50 for human HK-2 cells by MTT assay
[25] = Selectivity ratio, ratio of IC50 for human NCI-H2228 cells expressing ALK to IC50 for human HK-2 cells by MTT assay
EA.hy 926 = experiment: Effect on cell morphology in human EA.hy 926 cells at 1 uM incubated for 24 hrs by inverted microscopic analysis; format: functional, cell-based
NCI-H1975 [26] = experiment: Induction of apoptosis in human NCI-H1975 cells expressing EGFR T790M/ L858R double mutant assessed as increase in DNA breakage measured after 24 hrs by Hoechst 33342 staining based fluorescence microscopic analysis; format: functional, cell-based; details: dose 5-25 nM
NCI-H2228 [27] = experiment: Induction of apoptosis in human NCI-H2228 cells expressing ALK assessed as increase in DNA breakage measured after 24 hrs by Hoechst 33342 staining based fluorescence microscopic analysis; format: functional, cell-based; details: dose 5-25 nM
NCI-H1975 [28] = experiment: Inhibition of human NCI-H1975 cell cloning incubated for 24 hrs by inverted microscopic analysis; format: functional, cell-based; details: dose 5-25 nM
NCI-H2228 [29] = experiment: Inhibition of human NCI-H2228 cell cloning incubated for 24 hrs by inverted microscopic analysis; format: functional, cell-based; details: dose 1-20 nM
NCI-H1975 [30] = experiment: Antimigratory activity against human NCI-H1975 cells assessed as decrease in healing rate upto 10 nM measured upto 36 hrs by scratch-wound healing assay; format: functional, cell-based
NCI-H1975 [31] = experiment: Antimigratory activity against human NCI-H1975 cells assessed as reduction in cell migration incubated for 24 hrs by crystal violet staining microscopy based transwell migration assay; format: functional; details: dose 10-20 nM

## C=CC(=O)Nc1cc(Nc2nccc(-c3cn(C)c4ccccc34)n2)c(OC)cc1N(C)CCN(C)C [OSIMERTINIB]
NCI-H1975 [1]
  IC50: […]
A549
  IC50: 1560 nM
PC-9
  IC50: […]
[2]
  IC50: 1160 nM
[3]
  IC50: 2400 nM
HK-2
  Activity: inactive

## Cc1cc(N(C)CCN(C)C)ccc1Nc1ncc(Cl)c(Nc2ccccc2S(=O)(=O)N(C)C)n1
NCI-H1975 [1]
  IC50: 170 nM
NCI-H2228 [4]
  IC50: 55.5 nM

## CNC(=O)c1ccccc1Nc1ncnc2cc(OCCOC)c(OCCOC)cc12
NCI-H1975 [1]
  IC50: > 10000 nM
NCI-H2228 [4]
  IC50: > 10000 nM

## CCN(CC)S(=O)(=O)c1ccccc1Nc1ncnc2cc(OCCOC)c(OCCOC)cc12
NCI-H1975 [1]
  IC50: > 10000 nM
NCI-H2228 [4]
  IC50: > 10000 nM

## COCCOc1cc2ncnc(N(C)c3ccccc3S(=O)(=O)N(C)C)c2cc1OCCOC
NCI-H1975 [1]
  IC50: > 10000 nM
NCI-H2228 [4]
  IC50: > 10000 nM

## C=CC(=O)Nc1cc(Nc2ncc(Cl)c(Nc3ccccc3S(=O)(=O)N3CCCC3)n2)c(OC)cc1N(C)CCN(C)C
NCI-H1975 [1]
  IC50: 13.6 nM
NCI-H2228 [4]
  IC50: 14 nM

## C=CC(=O)Nc1cc(Nc2ncc(F)c(Nc3ccccc3S(=O)(=O)N3CCCC3)n2)c(OC)cc1N(C)CCN(C)C
NCI-H1975 [1]
  IC50: 81 nM
NCI-H2228 [4]
  IC50: 19 nM

## COCCOc1cc2ncnc(Nc3ccccc3S(=O)(=O)N(C)C)c2cc1OCCOC
NCI-H1975 [1]
  IC50: > 10000 nM
NCI-H2228 [4]
  IC50: > 10000 nM

## COc1cc(N(C)CCN(C)C)c(NC(=O)CCl)cc1Nc1ncc(Cl)c(Nc2ccccc2S(=O)(=O)N(C)C)n1
NCI-H1975 [1]
  IC50: 1030 nM
NCI-H2228 [4]
  IC50: 104 nM

## COCCOc1cc2ncnc(Nc3ccccc3S(=O)(=O)N3CCCC3)c2cc1OCCOC
NCI-H1975 [1]
  IC50: > 10000 nM
NCI-H2228 [4]
  IC50: > 10000 nM

## CN(C)CCN(C)c1ccc(Nc2ncc(Cl)c(Nc3ccccc3S(=O)(=O)N(C)C)n2)cc1
NCI-H1975 [1]
  IC50: 61 nM
NCI-H2228 [4]
  IC50: 108 nM

## C=CC(=O)Nc1cc(Nc2ncc(F)c(Nc3ccccc3S(=O)(=O)N(C)C)n2)c(OC)cc1N(C)CCN(C)C
NCI-H1975 [1]
  IC50: 67 nM
NCI-H2228 [4]
  IC50: 45 nM

## C=CC(=O)Nc1cc(Nc2ncc(Cl)c(Nc3ccccc3S(=O)(=O)NC3CC3)n2)c(OC)cc1N(C)CCN(C)C
NCI-H1975 [1]
  IC50: 21.5 nM
NCI-H2228 [4]
  IC50: 11 nM
[5]
  IC50: 3.31 nM
[6]
  Ratio IC50: 77.25
[7]
  IC50: 1.08 nM
[8]
  IC50: 23.2 nM
[9]
  IC50: 0.72 nM
Homo sapiens [10]
  Ratio IC50: 21.5
Homo sapiens [11]
  Ratio IC50: 32.3
A549
  IC50: 1540 nM
PC-9
  IC50: 20 nM
[12]
  Ratio IC50: 71.86
NCI-H1975 [13]
  Activity: Active
NCI-H1975 [14]
  Activity: Active
NCI-H1975 [15]
  Activity: Active
NCI-H1975 [16]
  Activity: Active
NCI-H2228 [17]
  Activity: Active
NCI-H2228 [18]
  Activity: Active
NCI-H2228 [19]
  Activity: Active
NCI-H2228 [20]
  Activity: Active
NCI-H2228 [21]
  Activity: Active
[2]
  IC50: 1610 nM
[3]
  IC50: 3300 nM
[22]
  Ratio IC50: 74.83
[23]
  Ratio IC50: 146.27
[24]
  Ratio IC50: 157.28
[25]
  Ratio IC50: 300.27
EA.hy 926
  Activity: Active
HK-2
  Activity: Active
NCI-H1975 [26]
  Activity: Dose-Dependent Effect
NCI-H2228 [27]
  Activity: Dose-Dependent Effect
NCI-H1975 [28]
  inhibition: Active
NCI-H2228 [29]
  inhibition: Active
NCI-H1975 [30]
  Activity: Active
NCI-H1975 [31]
  Activity: Dose-Dependent Effect

## CNS(=O)(=O)c1ccccc1Nc1ncnc2cc(OCCOC)c(OCCOC)cc12
NCI-H1975 [1]
  IC50: > 10000 nM
NCI-H2228 [4]
  IC50: > 10000 nM

## C=CC(=O)Nc1cc(Nc2ncc(Cl)c(Nc3ccccc3S(=O)(=O)N(C)C)n2)c(OC)cc1N(C)CCN(C)C
NCI-H1975 [1]
  IC50: 12.5 nM
NCI-H2228 [4]
  IC50: 18 nM

## Cc1cc(Nc2ncc(Cl)c(Nc3ccccc3S(=O)(=O)C(C)C)n2)c(OC(C)C)cc1C1CCNCC1 [CERITINIB]
[2]
  IC50: 1010 nM
[3]
  IC50: 2510 nM
[23]
  Ratio IC50: 228.36
[25]
  Ratio IC50: 77.69

## COCCOc1cc2ncnc(Nc3ccccc3S(=O)(=O)NC3CC3)c2cc1OCCOC
NCI-H1975 [1]
  IC50: > 10000 nM
NCI-H2228 [4]
  IC50: > 10000 nM

## C=CC(=O)Nc1cc(Nc2ncc(Cl)c(Nc3ccccc3S(=O)(=O)N(C)C3CC3)n2)c(OC)cc1N(C)CCN(C)C
NCI-H1975 [1]
  IC50: 100 nM
NCI-H2228 [4]
  IC50: 24.5 nM
